Results: PubChem BioAssay AID1053123 (Broad Institute, 2014)

Tested on: CHO ER-LucT cells, luciferase glycosylation gel shift, 24 h
Test: inhibitors of N-linked glycosylation of luciferase, dose response, CHO ER-LucT cells, western blot, cherry-picked (AID 1053123)

Row | Compound | AC50
1 | Cc1cnc(NC(=O)c2cc(S(=O)(=O)N3CCCC3)ccc2N2CCCC2)s1 | 2520 nM
2 | Cc1cnc(NC(=O)c2cc(S(=O)(=O)N(C)C)ccc2N2CCC2)s1 | 10500 nM
3 | Cc1cnc(NC(=O)c2cc(S(=O)(=O)N(C)C)ccc2N2CCCC2)s1 | 7640 nM
4 | Cc1cnc(NC(=O)c2cc(S(=O)(=O)N3CCOCC3)ccc2N2CCCC2)s1 | 950 nM
5 | Cc1csc(NC(=O)c2cc(S(=O)(=O)N(C)C)ccc2N2CCCC2)n1 | 395 nM
